The source of these data is patent US20090257979A1, “Novel Inhibitors of Hepatitis C Virus Replication” (INTERMUNE, INC., priority 2008, published 2009).

The target in assay [1] is T1, NS5B polymerase protein (Hepatitis C virus genotype 1a, UniProt P27958).
T1 construct: pre-incubated with the RNA template and NS5B polymerase protein; Replizyme
The assay can be described thus: biochemical. Conditions: pre-incubated 37° C. 30 minutes; RdRp reaction 90 minutes at 37° C.; read-out: HCV NS5B inhibition EC50. How it is done: The compounds were tested in the Replizyme HCV heterotemplate radioactive RNA-dependent RNA-polymerase (RdRp) assay. The test compounds were pre-incubated with the RNA template and NS5B polymerase protein at 37° C. for 30 minutes. The RdRp reaction was initiated with the addition of the NTPs to the buffer-NS5B-compound mix, and was allowed to proceed for 90 minutes at 37° C. Control reactions included: no enzyme, 5% DMSO (test compound solvent), no compound/solvent, Cordycepin-TP and HCV-796 (IC50 values used as a reference inhibition). Radioactive products were collected by applying the stopped reaction to DE-81 paper, air dried prior to washing with buffer comprising NaH2PO4 and sodium pyrophosphate to remove unincorporated ^32P-GTP in the NTP mix, and rinsed with dH2O followed by 100% ethanol. The DE-81 paper was air dried, squares cut out and placed in scintillation tubes for counting.

The subject of assay [2] is HCV Replicon. The assay can be described thus: HCV Replicon inhibition. In kind it is cell-based. Conditions: Hepatitis C virus.

T1 sequence (P27958 2421-3011): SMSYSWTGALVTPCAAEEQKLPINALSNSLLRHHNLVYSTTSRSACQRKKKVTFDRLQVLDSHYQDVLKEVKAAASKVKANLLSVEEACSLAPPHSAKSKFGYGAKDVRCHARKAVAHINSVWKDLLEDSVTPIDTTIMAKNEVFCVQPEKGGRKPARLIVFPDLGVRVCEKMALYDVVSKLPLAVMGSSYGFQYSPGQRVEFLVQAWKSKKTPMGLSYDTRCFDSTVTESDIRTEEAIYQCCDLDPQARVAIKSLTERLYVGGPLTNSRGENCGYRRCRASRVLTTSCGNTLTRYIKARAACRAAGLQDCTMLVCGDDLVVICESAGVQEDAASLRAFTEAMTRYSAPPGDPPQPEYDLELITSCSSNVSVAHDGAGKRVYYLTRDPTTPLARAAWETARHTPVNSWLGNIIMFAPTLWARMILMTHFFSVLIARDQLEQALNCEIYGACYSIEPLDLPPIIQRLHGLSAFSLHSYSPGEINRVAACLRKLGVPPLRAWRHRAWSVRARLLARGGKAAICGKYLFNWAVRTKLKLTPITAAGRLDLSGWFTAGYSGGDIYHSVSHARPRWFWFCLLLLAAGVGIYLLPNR

The EC50 is the concentration at which the effect is half-maximal. Regarding `CS(=O)(=O)Nc1ccc2c(c1)S(=O)(=O)N=C(c1c(O)n3ccccc3c(Cc3ccc(F)c(F)c3)c1=O)N2` [Compound 236, N-{3-[1-(3,4-Difluoro-benzyl)-4-hydroxy-2-oxo-2H-quinolizin-3-yl]-1,1-dioxo-1,4-dihydro-1lambda′6′-benzo[1,2,4]thiadiazin-7-yl}-methanesulfonamide], the EC50 in assay [1] and in assay [2] was < 0.1 µM each time.

As for `CS(=O)(=O)Nc1ccc2c(c1)S(=O)(=O)N=C(c1c(O)n3ccccc3c(Cc3ccccc3F)c1=O)N2` [Compound 237, N-{3-[1-(2-Fluoro-benzyl)-4-hydroxy-2-oxo-2H-quinolizin-3-yl]-1,1-dioxo-1,4-dihydro-1lambda′6′-benzo[1,2,4]thiadiazin-7-yl}-methanesulfonamide], the EC50 in assay [1] and in assay [2] was < 0.1 µM throughout.

As to `CS(=O)(=O)Nc1ccc2c(c1)S(=O)(=O)N=C(c1c(O)n3ccccc3c(Cc3ccccc3)c1=O)N2` [Compound 238, N-[3-(1-Benzyl-4-hydroxy-2-oxo-2H-quinolizin-3-yl)-1,1-dioxo-1,4-dihydro-1lambda′6′-benzo[1,2,4]thiadiazin-7-yl]-methanesulfonamide], the EC50 in assay [1] and in assay [2] was < 0.1 µM throughout.

With `COc1ccc(Cc2c(=O)c(C3=NS(=O)(=O)c4cc(NS(C)(=O)=O)ccc4N3)c(O)n3ccccc23)cc1` [Compound 245], the EC50 was 0.1 to 1 µM in assay [1] and < 0.1 µM in assay [2].

With `Cc1cccc2c(CCC(C)C)c(=O)c(C3=NS(=O)(=O)c4cc(NS(C)(=O)=O)ccc4N3)c(O)n12` [Compound 249], the values for the 50% effective concentration (EC50) in assay [1] and in assay [2] were 0.1 to 1 µM and < 0.1 µM, respectively.

As for `CC(C)CCc1c(=O)c(C2=NS(=O)(=O)c3cc(NS(C)(=O)=O)ccc3N2)c(O)n2cc(F)ccc12` [Compound 250], the EC50 in assay [1] and in assay [2] was < 0.1 µM in each case.

For `Cc1ccc2c(CCC(C)C)c(=O)c(C3=NS(=O)(=O)c4cc(NS(C)(=O)=O)ccc4N3)c(O)n2c1` [Compound 252], the EC50 in assay [1] and in assay [2] was < 0.1 µM each time.

As to `CS(=O)(=O)Nc1ccc2c(c1)S(=O)(=O)N=C(c1c(O)n3ccccc3c(CCC3CC3)c1=O)N2` [Compound 253], the EC50 in assay [1] lay in the range of 1 to 10 µM; in assay [2], 0.1 to 1 µM.
